Reference: patent US10005767B2, “Compositions and methods for inhibition of the JAK pathway” (Rigel Pharmaceuticals, Inc., priority 2009, dated 2018)
pIC50: −log10 of the molar value.

test system: human primary T-cells, IL-2 stimulated proliferation (JAK-1 and JAK-3 dependent; reported as JAK3 activity); assay: Human primary T-cell proliferation stimulated by IL-2 (Example 3); assay type: cell-based; conditions: Homo sapiens, T-cell, tested under conditions described in Example 3 (IL-2 stimulated human primary T-cell proliferation); read-out: ability to inhibit JAK3 activity, IC50 range (Table V)
Summary of the method: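 Peripheral-blood human T-cells pre-activated via TCR/CD28, IL-2-starved overnight, then cultured 72 h at 37 °C with compound in Yssel's medium containing IL-2 (80 U/mL in cell suspension). Proliferation read as viable-cell ATP by CellTiter-Glo luminescence; reduction versus control taken as JAK pathway inhibition.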

Compound | pIC50
Cc1cnc(Nc2cnc(N3CCN(C)CC3)c(F)c2)nc1Nc1ccc2oc(=O)[nH]c2c1 [II-111, N4-(benzo[d]oxazolin-2(3H)-one-5-yl)-N2-[3-fluoro-2-(4-methylpiperazin-1-yl)pyridine-5-yl]-5-methyl-2,4-pyrimidinediamine] | > 6.30
Cc1ccc(Cl)c(Nc2ncc(C)c(Nc3ccc4oc(=O)[nH]c4c3)n2)c1 [Compound I-521, 5-(2-(2-chloro-5-methylphenylamino)-5-methylpyrimidin-4-ylamino)benzo[d]oxazol-2(3H)-one] | > 6.30
Cc1cnc(Nc2ccc(N3CC[C@@H](N(C)C)C3)nc2)nc1Nc1ccc2oc(=O)[nH]c2c1 [II-89, (R)-5-(2-(6-(3-(dimethylamino)pyrrolidin-1-yl)pyridin-3-ylamino)-5-methylpyrimidin-4-ylamino)benzo[d]oxazol-2(3H)-one] | > 6.30
Cc1cnc(Nc2cccc(C=O)c2)nc1Nc1ccc2oc(=O)[nH]c2c1 [Compound I-1, N4-(benzo[d]oxazol-2(3H)-on-5-yl)-N2-(3-formylphenyl)-5-methylpyrimidine-2,4-diamine] | 5.30 to 6.30
Cc1cnc(Nc2ccc(N3CCC[C@H](N(C)C(=O)OC(C)(C)C)C3)nc2)nc1Nc1ccc2oc(=O)[nH]c2c1 [II-87, (S)-tert-butyl methyl(1-(5-(5-methyl-4-(2-oxo-2,3-dihydrobenzo[d]oxazol-5-ylamino)pyrimidin-2-ylamino)pyridin-2-yl)piperidin-3-yl)carbamate] | > 6.30
Cc1cnc(Nc2ccc(NCC3CC3)nc2)nc1Nc1ccc2oc(=O)[nH]c2c1 [II-74, 5-(2-(6-(cyclopropylmethylamino)pyridin-3-ylamino)-5-methylpyrimidin-4-ylamino)benzo[d]oxazol-2(3H)-one] | > 6.30
Cc1cnc(Nc2ccc(N3CC4(C)CN(C)CC(C)(C3)C4)nc2)nc1Nc1ccc2oc(=O)[nH]c2c1 [II-117, 5-methyl-N4-(2-oxo-2,3-dihydro-1,3-benzoxazol-5-yl)-N2-[2-(1,3,5-trimethyl-3,7-diazabicyclo[3.3.1]nonan-7-yl)pyridin-5-yl]-2,4-pyrimidinediamine] | > 6.30

same assay, conditions: tested under conditions described in Example 3 (IL-2 stimulated human primary T-cell proliferation); read-out: ability to inhibit JAK3 activity, IC50 range (Table V)

Compound | pIC50
Cc1cnc(Nc2ccc(OC(F)F)c(Cl)c2)nc1Nc1ccc2oc(=O)[nH]c2c1 [Compound I-314, N2-(3-chloro-4-difluoromethoxy)phenyl-5-methyl-N4-(2-oxo-2,3-dihydro-1,3-benzoxazol-5-yl)-2,4-pyrimidinediamine] | > 6.30
Cc1cnc(Nc2ccc(-n3cccc3)c(C#N)c2)nc1Nc1ccc2oc(=O)[nH]c2c1 [Compound I-295, N2-[3-cyano-4-(1H-pyrrol-1-yl)]phenyl-5-methyl-N4-(2-oxo-2,3-dihydro-1,3-benzoxazol-5-yl)-2,4-pyrimidinediamine] | > 6.30
COc1cc(Nc2ncc(C)c(Nc3ccc4oc(=O)[nH]c4c3)n2)ccc1C#N [Compound I-380, N2-(4-cyano-3-methoxy)phenyl-5-methyl-N4-(2-oxo-2,3-dihydro-1,3-benzoxazol-5-yl)-2,4-pyrimidinediamine] | > 6.30
Cc1cnc(Nc2ccc(S(C)(=O)=O)cc2)nc1Nc1ccc2[nH]c(=O)oc2c1 [Compound I-101, N2-((4-methylsulfonyl)phenyl)-N4-(2-oxo-2,3-dihydrobenzo[d]oxazol-6-yl)-5-methylpyrimidine-2,4-diamine] | > 6.30
Cc1cnc(Nc2ccc(Cl)c(OC(F)F)c2)nc1Nc1ccc2oc(=O)[nH]c2c1 [Compound I-418, N2-(4-chloro-3-difluoromethoxy)phenyl-5-methyl-N4-(2-oxo-2,3-dihydro-1,3-benzoxazol-5-yl)-2,4-pyrimidinediamine] | > 6.30
Cc1cnc(Nc2cccc(S(=O)(=O)NC(C)(C)C)c2)nc1Nc1ccc2oc(=O)[nH]c2c1 [Compound I-25, N4-(benzo[d]oxazol-2(3H)-on-5-yl)-N2-((3-tert-butylaminosulfonyl)phenyl)-5-methylpyrimidine-2,4-diamine] | > 6.30
